Entries after “also recorded” stand apart in the source; their conditions may differ. Like-named read-outs stand apart in the source and are kept apart here.
Key:
[1] = test system: Akt; test: Immunoprecipitated Akt kinase assay from drug-treated PC-3 cells (intracellular Akt activation); format: cell-based, human; conditions: PC-3 cells treated 2 h, read-out: IC50 for inhibiting intracellular Akt activation
Method: Immunoprecipitated Akt kinase assay Akt immunoprecipitation was carried out according to a modified, published procedure. PC-3 cells were treated with DMSO vehicle or the test agents at the indicated concentrations for 2 h and then lysed at 4° C for 1 h in buffer A containing 50 mM Tris-HCl, pH 7.5, 1% Triton X-100, 1 mM EDTA, 1 mM EGTA, 50 mM sodium fluoride, 10 mM sodium β-glycerophosphate. 0.1% 2-mercaptoethanol, 0.1 mM phenylmethylsulfonyl fluoride, and 1 μg/mL each of aprotinin, pepstatin, and leupeptin. Cell lysates were centrifuged at 10,000 g for 5 min, and the supernatant was treated with anti-Akt at 4° C. for 60 min., followed by protein G-agarose beads for additional 60 min. The immunoprecipitate was used to analyze Akt kinase activity by using the Akt/SGK-specific peptide substrate RPRAATF as described above. Values represented the means of two independent determinations.

[2] = test system: PC-3 cells; test: Cell proliferation (Coulter counter) in PC-3 cells; format: cell-based, human; conditions: 1 μM; 10% FBS-supplemented RPMI 1640 medium
Method: (§1) Cell Culture PC-3 (p53−/−) human androgen-nonresponsive prostate cancer cells were purchased from the American […] (Manassas, Va.). Cells were cultured in RPMI 1640 medium (Gibco, Grand Island, N.Y.) supplemented with 10% fetal bovine serum (FBS; Gibco) at 37° C. in a humidified incubator containing 5% CO2.
Cell proliferation PC-3 cells were seeded into six-well plates at 50,000 cells/well in 10% FBS-containing RPMI 1640 medium. Following a 24 h attachment period, cells were treated in triplicate with the indicated concentration of compounds 1-36 or DMSO vehicle in 10% FBS-containing RPMI-1640 medium. At different time intervals, cells were harvested by trypsinization, and numerated using a Coulter counter model Z1 D/T (Beckman Coulter, Fullerton, Calif.).

[3] = molecular target: T1, recombinant PDK-1 (Homo sapiens, UniProt O15530); test: PDK-1 kinase activity (Upstate kit, SGK-coupled, cell-free); format: biochemical; conditions: ratio of IC50 values
T1 construct: purchased Upstate (Lake Placid, N.Y.)
T1 sequence (O15530 1-556): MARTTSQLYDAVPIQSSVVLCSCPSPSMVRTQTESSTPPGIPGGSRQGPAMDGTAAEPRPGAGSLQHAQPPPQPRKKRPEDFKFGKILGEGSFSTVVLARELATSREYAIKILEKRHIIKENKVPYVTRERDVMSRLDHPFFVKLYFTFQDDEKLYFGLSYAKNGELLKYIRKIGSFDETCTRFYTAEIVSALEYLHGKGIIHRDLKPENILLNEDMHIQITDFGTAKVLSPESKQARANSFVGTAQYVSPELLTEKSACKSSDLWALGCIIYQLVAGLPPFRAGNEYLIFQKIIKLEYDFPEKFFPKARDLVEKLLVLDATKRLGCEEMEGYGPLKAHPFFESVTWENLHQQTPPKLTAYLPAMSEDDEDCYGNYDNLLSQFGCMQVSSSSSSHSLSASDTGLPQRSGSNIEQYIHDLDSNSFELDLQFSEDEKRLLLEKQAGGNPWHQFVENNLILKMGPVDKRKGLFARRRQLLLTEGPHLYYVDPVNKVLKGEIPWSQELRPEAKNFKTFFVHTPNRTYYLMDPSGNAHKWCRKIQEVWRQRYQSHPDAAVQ
Method: PDK-1 kinase activity This in vitro assay was performed using a PDK-1 kinase assay kit (Upstate, Lake Placid, N.Y.) according to the vendor's instructions. This cell-free assay is based on the ability of recombinant PDK-1, in the presence of DMSO vehicle or the test agent, to activate its downstream kinase serum- and glucocorticoid-regulated kinase (SGK.) which, in turn, phosphorylates the Akt/SGK-specific peptide substrate RPRAATF with [γ-^32]-ATP. […] The reported values represent the means of two independent determinations.

[4] = test system: phospho-473Ser Akt; test: Western blot of Akt and phospho-Akt in PC-3 cells; format: cell-based, human; conditions: 5 μM and above, 2 h
Method: Immunoblotting. The general procedure for the Western blot analysis of Akt and phospho-Akt is described as follows. Cells were washed in PBS, resuspended in SDS sample buffer sonicated by an ultrasonic sonicator for 5 sec, and boiled for 5 min. After brief centrifugation, equivalent protein concentrations from the soluble fractions were resolved in 10% SDS-polyacrylamide gels on a Minigel apparatus, and transferred to a nitrocellulose membrane using a semi-dry transfer cell. The transblotted membrane was washed three times with TBS containing 0.05% Tween 20 (TBST). After blocking with TBST containing 5% nonfat milk for 60 min., the membrane was incubated with the primary antibody at 1:1,000 dilution in TBST-5% low fat milk at 4° C. for 12 h, and was then washed three times with TBST. The membrane was probed with goat anti-rabbit IgG-HRP conjugates (1:1,000) for 1 h at room temperature, and was washed with TBST three times. The immunoblots were visualized by enhanced chemiluminescence.

[5] = test system: PC-3 cells; test: Cell viability analysis (MTT) in PC-3 cells; format: cell-based, human
Method: as §1
Cell viability analysis The effect of 4-[5-(4-methylphenyl)-3-(trifluoromethyl)-1H-pyrazol-1-yl]benzenesulfonamide and its derivatives on PC-3 cell viability was assessed by using the MTT {[3-(4,5-dimethylthiazol-2-yl)-2,5-diphenyl-2H-tetrazolium bromide]} assay in six replicates. Cells were grown in 10% FBS-supplemented RPMI 1640 medium in 96-well, flat bottomed plates for 24 h, and were exposed to various concentrations of compounds 1-36 dissolved in DMSO (final concentration ≦0.1%) in 1% serum-containing RPMI 1640 medium for different time intervals. Controls received DMSO vehicle at a concentration equal to that in drug-treated cells. The medium was removed, replaced by 200 μl of 0.5 mg/ml of MTT in 10% FBS-containing RPMI-1640 medium, and cells were incubated in the CO2 incubator at 37° C. for 2 h. Supernatants were removed from the wells, and the reduced MTT dye was solubilized in 200 μL/well DMSO. Absorbance at 570 nm was determined on a plate reader.

[6] = test system: immunoprecipitated Akt; test: Direct inhibition of immunoprecipitated Akt kinase activity; format: biochemical, human
[7] = test system: MCP7; test: NCI DTP screen (SRB), Breast Cancer; format: cell-based, human; conditions: MCF7
Method: (§2) Screening of compounds 70 and 71 against several cancer cell lines The human tumor cell lines of the cancer screening panel are grown in RPMI 1640 medium containing 5% fetal bovine serum and 2 mM L-glutamine. For a typical screening experiment, cells are inoculated into 96 well microtiter plates in 100 μL at plating densities ranging from 5,000 to 40,000 cells/well depending on the doubling time of individual cell lines. After cell inoculation, the microtiter plates are incubated at 37° C., 5% CO2, 95% air and 100% relative humidity for 24 h prior to addition of experimental drugs.
(§3) After 24 h, two plates of each cell line are fixed in situ with TCA, to represent a measurement of the cell population for each cell line at the time of drug addition (Tz). Experimental drugs are solubilized in dimethyl sulfoxide at 400-fold the desired final maximum test concentration and stored frozen prior to use. At the time of drug addition, an aliquot of frozen concentrate is thawed and diluted to twice the desired final maximum test concentration with complete medium containing 50 μg/ml gentamicin. Additional four, 10-fold or ½ log serial dilutions are made to provide a total of five drug concentrations plus control. Aliquots of 100 μl of these different drug dilutions are added to the appropriate microtiter wells already containing 100 μl of medium, resulting in the required final drug concentrations.
(§4) Following drug addition, the plates are incubated for an additional 48 h at 37° C., 5% CO2, 95% air, and 100% relative humidity. For adherent cells, the assay is terminated by the addition of cold TCA. Cells are fixed in situ by the gentle addition of 50 μl of cold 50% (w/v) TCA (final concentration, 10% TCA) and incubated for 60 minutes at 4° C. The supernatant is discarded, and the plates are washed five times with tap water and air dried. Sulforhodamine B (SRB) solution (100 μl) at 0.4% (w/v) in 1% acetic acid is added to each well, and plates are incubated for 10 minutes at room temperature. After staining, unbound dye is removed by washing five times with 1% acetic acid and the plates are air dried. Bound stain is subsequently solubilized with 10 mM trizma base, and the absorbance is read on an automated plate reader at a wavelength of 515 nm. For suspension cells, the methodology is the same except that the assay is terminated by fixing settled cells at the bottom of the wells by gently adding 50 μl of 80% TCA (final concentration, 16% TCA). Using the seven absorbance measurements [time zero, (Tz), control growth, (C), and test growth in the presence of drug at the five concentration levels (Ti)], the percentage growth is calculated at each of the drug concentrations levels. Percentage growth inhibition is calculated as: [(Ti−Tz)/(C−Tz)]×100 for concentrations for which Ti>/=Tz [(Ti−Tz)/Tz]×100 for concentrations for which Ti<Tz
(§5) Three dose response parameters are calculated for each experimental agent. […] The drug concentration resulting in total growth inhibition (TGI) is calculated from Ti=Tz. […] Values are calculated for each of these three parameters if the level of activity is reached; however, if the effect is not reached or is exceeded, the value for that parameter is expressed as greater or less than the maximum or minimum concentration tested.

[8] = in vivo
[9] = test system: RXP 393; test: NCI DTP screen (SRB), Renal Cancer; format: cell-based, human
Method: as §2, §3, §4, §5

[10] = test system: UO-31; test: NCI DTP screen (SRB), Renal Cancer; format: cell-based, human; conditions: UD-31
Method: as §2, §3, §4, §5

[11] = test system: U251; test: NCI DTP screen (SRB), CNS Cancer; format: cell-based, human; conditions: Log10 Concentration −4.0
Method: as §2, with “drugs. […]” for “drugs.”
Following drug addition, the plates are incubated for an additional 48 h at 37° C., 5% CO2, 95% air, and 100% relative humidity. […] Bound stain is subsequently solubilized with 10 mM trizma base, and the absorbance is read on an automated plate reader at a wavelength of 515 nm. […] Using the seven absorbance measurements [time zero, (Tz), control growth, (C), and test growth in the presence of drug at the five concentration levels (Ti)], the percentage growth is calculated at each of the drug concentrations levels. Percentage growth inhibition is calculated as: [(Ti−Tz)/(C−Tz)]×100 for concentrations for which Ti>/=Tz [(Ti−Tz)/Tz]×100 for concentrations for which Ti<Tz
Three dose response parameters are calculated for each experimental agent. […]

[12] = test system: LOX IMVI; test: NCI DTP screen (SRB), Melanoma; format: cell-based; conditions: LOX IKVI
Method: as §2, §3, §4, §5

[13] = test system: sixty human tumor cell lines; test: NCI DTP sixty cell line assay, means over the panel; format: cell-based
Method: as §2, §3, §4, §5

[14] = test system: MALNE-3M; test: NCI DTP screen (SRB), Melanoma; format: cell-based; conditions: MALME-3M
[15] = test system: NCI-H322M; test: NCI DTP screen (SRB), Non-Small Cell Lung Cancer; format: cell-based; conditions: NCI-H322H
Method: as §2, §3, §4, §5

[16] = test system: HS 57BT; test: NCI DTP screen (SRB), Breast Cancer; format: cell-based; conditions: HS S78T
Method: as §2, §3, §4, §5

[17] = Preliminary animal studies, daily oral administration; conditions: daily oral administration for one month; data not shown

4-[5-(2-phenanthrenyl)-3-(trifluoromethyl)-1H-1-yl]benzenesulfonamide [Compound 59]
IC50 [1]: 5 µM | anti-proliferative activity on PC-3 cell proliferation [2]: substantial anti-proliferative activity | improvement of IC50 values (PDK-1 and PC-3) over the comparative compound [3]: five- to six-fold | Akt dephosphorylation (Western blot) [4]: significant Akt dephosphorylation | IC50 ([5]; 24 h, 1% FBS-containing RPMI 1640 medium, read-out: dose required to induce 50% PC-3 cell death): 5 µM | IC50 ([5]; inducing apoptotic death in PC-3 cells / PC-3 cell viability, read-out: IC50 PC-3): 5 µM | direct inhibitory effect on immunoprecipitated Akt kinase activity [6]: Neither compound 59 nor other the other compounds displayed a direct inhibitory effect; also recorded: no appreciable direct inhibition

N=C(N)Nc1ccc(-n2nc(C(F)(F)F)cc2-c2ccc3c(ccc4ccccc43)c2)cc1 [Compound 71, 4-[5-(2-Phenanthrenyl)-3-(trifluoromethyl)-1H-pyrazol-1-yl]-phenyl-guanidine]
Percent Growth ([7]; Log10 Concentration −4.0): −49% | Percent Growth ([7]; Log10 Concentration −5.0): −84% | oral absorption [8]: can be orally absorbed | average serum concentrations relative to TGI ([8]; po): average serum concentrations several-fold higher than TGI | Percent Growth ([9]; Log10 Concentration −4.0): −4% | Percent Growth ([9]; Log10 Concentration −5.0): −61% | Percent Growth ([10]; Log10 Concentration −4.0): −35% | Percent Growth ([10]; Log10 Concentration −5.0): −100% | Percent Growth [11]: −12% | Percent Growth ([12]; Log10 Concentration −4.0): −53% | Percent Growth ([12]; Log10 Concentration −5.0): −98% | increase in PDK-1 inhibition potency over compound 59 [3]: five-fold | range in which cell growth is completely suppressed in a diverse range of tumor cell lines [13]: 3 to 5 µM | concentration at which many cell lines respond to the growth inhibitory effect ([13]; two-day exposure, 5% FBS-containing medium): ≥ 0.1 µM | GI50 ([13]; two-day treatment, serum-containing medium, read-out: mean GI50 among the sixty cell lines): 1.3 µM | Percent Growth ([14]; Log10 Concentration −4.0): −50% | Percent Growth ([14]; Log10 Concentration −5.0): −87% | Percent Growth ([15]; Log10 Concentration −4.0): −59% | Percent Growth ([15]; Log10 Concentration −5.0): −100% | Percent Growth ([16]; Log10 Concentration −4.0): −38% | Percent Growth ([16]; Log10 Concentration −5.0): −69% | direct inhibitory effect on immunoprecipitated Akt kinase activity [6]: no appreciable direct inhibition | toxicity to the animals [17]: little toxicity

Source: patent publication US20060079566A1, “PDK-1/Akt signaling inhibitors” (priority 2003, published 2006)
